Test results reported in patent US10001470B2, “Method, system and composition for optically inducing cardiomyocyte contraction” (Sanford-Burnham Medical Research Institute, priority 2009, dated 2018).

Legend:
[1] = test system: Neonatal Rat Ventricular Myocytes (NRVMs); type: cell-based
Excerpt: (§1) A Calcium Transient Image Cytometer (CTIC) instrument and software have been developed at Vala Sciences to analyze calcium transient and other fluorescent read out in stimulated cardiomyocytes which is utilized in the Examples described herein. The instrument consists of a Nikon Eclipse™ microscope with a 20× objective, a Cohu 6612-3000 monochrome ½″ digital/analog progressive scan camera (which operates at 30 or 60 Hz), a Pentium™ 4-based PC, and a 200 gigabyte external “firewire” hard drive.
Platinum electrodes are mounted on a micromanipulator to stimulate cardiomyocytes cultured in a 96-well plate. The plate is placed, without a lid, on the stage of a robotic inverted microscope outfitted for fluorescence microscopy. The mechanical stage of the microscope moves to bring each well into position and the micromanipulator lowers to the pair of electrodes to bring them into contact with the culture medium of the well that is being analyzed. […]
The instrument is incorporated in a 37° C. chamber with CO2 and O2 percentage controllers, allowing the execution of experiment in approximate physiological conditions. The calcium analysis software, developed at Vala Sciences as a plug-in for Vala's CyteSeer High Content Analysis™ software, converts the fluo-4 and Hoechst 33342 fluorescence signals in a binary mask, to distinguish portions of the images corresponding to single cells. […]

[2] = test system: Neonatal Rat Ventricular Myocytes (NRVMs); assay: Calcium transient (Tdecay) in single-pulse stimulated NRVMs, CTIC; type: cell-based; conditions: for Tdecay Mean / Tdecay Diff. (%) control vs compound / Tdecay Difference (ms) control vs compound: single pulse; for Tdecay Mean: average signal of three wells
Excerpt: as §1
Platinum electrodes are mounted on a micromanipulator to stimulate cardiomyocytes cultured in a 96-well plate. The plate is placed, without a lid, on the stage of a robotic inverted microscope outfitted for fluorescence microscopy. The mechanical stage of the microscope moves to bring each well into position and the micromanipulator lowers to the pair of electrodes to bring them into contact with the culture medium of the well that is being analyzed. The voltage used to stimulate the cells is on the order of 20 to 30 volts, utilizing square wave pulses of 5 to 20 msec. A “polarity reverser” is included in the circuit to maintain electrode performance and effective stimulation of cardiac myocytes. FIG. 3 describes the prototype setting. After positioned on the well, the electrodes move to the “down” position, the instrument autofocuses on cells nuclei (blue channel), stimulates the cells (single stimulus or at 1 to 3 Hz for 3 to 10 seconds) and acquires the fluo-4 channel (green channel). Subsequently, the electrodes move to the “up” position and the instrument moves to another well, repeating the entire process. The time required to sample each well will range from 20 to 30 seconds, depending on the number of frames that are collected and the rate of stimulation.
The instrument is incorporated in a 37° C. chamber with CO2 and O2 percentage controllers, allowing the execution of experiment in approximate physiological conditions. The calcium analysis software, developed at Vala Sciences as a plug-in for Vala's CyteSeer High Content Analysis™ software, converts the fluo-4 and Hoechst 33342 fluorescence signals in a binary mask, to distinguish portions of the images corresponding to single cells. Then, comparing the images acquired during the stimulation, the software reports the calcium variation for the well or for every single cell and the average value for the well. Traces can be filtered to remove low responders or kinetics with specific characteristics.
A number of kinetic parameters can be automatically derived either for the nuclear, cytoplasm or the whole cell compartments: The Full Width at Half Maximum (FWHM), which is the time required for progression from the 50% point on the upstroke to 50% point on the downstroke, TRise, which is the time from 50% point to 100% on the upstroke, and the TDecay, which is the time period from 100% point to 50% point on the decay phase. Other values can be measured, including the time from 75% to 25% in the downstroke (T75-25) and the value at a particular time. Values are measured for single cells in the well and as average of the well.
The CTIC and calcium recording have been validated also for toxicity-related analysis. In one set of experiments, NRVMs are treated with either sparfloxacin or cisapride. The first one is a fluoroquinolone antibiotic no longer available in the U.S., known to induce QT interval prolongation at high dosage. The second one is a serotonin 5-HT4 receptor agonist, used to cure people with gastro esophageal reflux disease. […] This is a clear hallmark of compounds that predispose to arrhythmia and torsades de pointes.
Tdecay is indicated for the average signal of three control wells and three compound treated wells. The mean, standard deviation (SD) and percent error is calculated for each group. The difference between the control and the compound groups is also indicated.
FIGS. 5A and 5B show calcium transient in drug treated NRVMs. […]

Substance | Calcium flux response to continuous stimulation [1] | Effect on Tdecay ([2]; 100 μM during the stimulation) | Tdecay Mean ([2]; 100 μM in recording buffer) | Tdecay Diff. (%) control vs compound ([2]; 100 μM) | Tdecay Difference (ms) control vs compound ([2]; 100 μM) | Early after depolarization (EAD) ([2]; 1 μM) | Effect on Tdecay ([2]; 1 μM) | Tdecay Mean ([2]; 1 μM in recording buffer) | Tdecay Diff. (%) control vs compound ([2]; 1 μM) | Tdecay Difference (ms) control vs compound ([2]; 1 μM)
Sparfloxacin | irregular calcium flux | clearly doubles the Tdecay | 1969 ms | +106% | +1012 ms | – | – | – | – | –
Cisapride | – | – | – | – | – | causes early after depolarization (EAD) | induces an increase in Tdecay | 2145 ms | +129% | +1210 ms
